# Laboratory results taken from US9668479B2, “Modulating germination of Paenibacillus larvae” (THE BOARD OF REGENTS OF THE NEVADA SYSTEM OF HIGHER …, priority 2013, dated 2017).
# Read-outs that look alike come from different tables or passages of the source.
# Key:
# P. larvae spores [1] = experiment: Inhibition of P. larvae spore germination by indole and phenol, IC50 titration (Example 1); assay type: cell-based, Paenibacillus larvae subsp. pulvifaciens strain ATCC 49843; conditions: for IC50: Paenibacillus larvae
# Method: The decrease in optical density is proportional to spore germination (Powell, J. Gen. Microbiol., 4:330-338, 1950). Changes in light diffraction during spore germination were monitored at 580 nm (OD580) on a Biomate 5 (ThermoElectron Corporation, Waltham, Mass.) or a Tecan Infinite m200 (Tecan group, Männedorf, Switzerland) spectrophotometer. Experiments were carried out in 96-well plates (200 μL/well). In preparation for germination assays, P. larvae spore suspensions were washed three times with water. Spores were then heat activated at 70° C. for 30 minutes. The heat-activated spores were allowed to reach room temperature and transferred to 0.1 M sodium phosphate buffer (pH 7.0) to an approximate OD580 of 0.70. Spores were monitored for auto-germination for 30 minutes. […] Putative germinants were added individually or in combinations to a final concentration of 3 mM. Experiments were performed in triplicate with at least two different spore preparations. After germinant addition, OD580 of the spore suspension was measured every minute for an hour. Relative OD values were derived by dividing each OD580 reading by the initial OD580. Spore germination rates (v) were calculated from the initial linear decrease in relative OD (Akoachere et al., supra). Germination rates were set to 100% for P. larvae spores that had the fastest germination rate in an assay. Germination rates for other conditions were divided by the maximum germination rate for that assay and are reported as percent germination. […] Spore germination was confirmed in selected samples by microscope observation of Schaeffer-Fulton stained aliquots (Schaeffer and Fulton, supra).
# After 15 minutes of incubation, spores were treated with 3 mM L-tyrosine/3 mM uric acid. The germination rate was set to 100% for P. larvae spores germinated in the absence of inhibitor. Germination rates for other conditions were divided by the uninhibited maximum germination rate obtained with 3 mM L-tyrosine/3 mM uric acid, and are reported as percent germination. Percent germination was plotted against inhibitor concentrations. The resulting sigmoidal curves were fitted using the four parameter logistic function in SigmaPlot v.9 to calculate IC50 values.
# P. larvae spores [2] = experiment: Inhibition of P. larvae spore germination, IC50 titration of indole analogs (Example 2); assay type: cell-based, Paenibacillus larvae subsp. pulvifaciens strain ATCC 49843
# Method: After a 15 minute incubation, the spores were treated with 3 mM L-tyrosine-3 mM uric acid. The germination rate was set to 100% for P. larvae spores germinated in the absence of inhibitor. Germination rates for other conditions were divided by the uninhibited maximum germination rate obtained with 3 mM L-tyrosine-3 mM uric acid, and are reported as percent germination. Percent germination was plotted against the inhibitor concentrations.
# [3] = test system: honey bee larvae contacted with P. larvae spores; experiment: Survival of honey bee larvae fed diet with indole analogs and P. larvae spores; assay type: in vivo; conditions: 0.5 mM in larval diet (wj) plus P. larvae spores; for survival of honey bee larvae vs P. larvae spores alone: 7-day development, p<0.002
# Method: First instar honey bee larvae were obtained from two colonies headed by naturally mated queens (Honey Bee Genetics, Vacaville Calif.). Queens were trapped on empty frames within a cage constructed with queen excluder. Worker bees can fit through the excluder but the queen cannot exit the cage. The frame was placed within the brood chamber to stimulate egg laying by the queen overnight. Eggs were incubated in the hive for 4 days to allow newly hatched larvae to be fed by nurse bees. First instar honey bee larvae were brought into the laboratory and stored in a 35° C. 85% relative humidity chamber before grafting.
# Sterile six well plates with a well volume of 17.0 ml were filled with 2.5 ml of pre-warmed artificial worker jelly. Honey bee larvae were transferred into each well using the thin tongue made of flexible plastic from a Chinese grafting tool. The plastic grafting tool was decontaminated with 70% ethanol throughout usage. Grafting was performed in the sterile environment of a honey bee laboratory, and honey bee larvae were then transferred to a bacterial spore laboratory for control and spore exposure treatments.
# Artificial worker jelly was prepared using a lyophilized royal jelly, D-glucose, D-fructose, yeast extract, and autoclaved double distilled water. Ingredients minus lyophilized royal jelly were dissolved in autoclaved double distilled water. Lyophilized royal jelly was added to this sugar-yeast extract solution and mixed thoroughly with a vortex mixer. Artificial diet was prepared an hour prior to use for larval rearing. To reduce the development of worker-queen hybrids because of nutrition, the composition and amounts of artificial worker jelly were controlled in every larval stage.
# Honey bee larvae were incubated in an air tight plastic container placed inside an incubator. The desired relative humidity (95%) and temperature (35° C.) was verified with an iButton data logger (Maxim Integrated; San Jose, Calif.). The appropriate relative humidity was obtained by placing a solution of 20% glycerol by weight. The plastic containers were was decontaminated throughout usage with detergent, 70% ethanol, and treated with an ultraviolet lamp overnight.
# Feeding of diets was performed daily in different amounts according to Table 2. The amount of diet consumed by larvae was assumed based on published literature. A micropipette was used to place a food drop next to the mouth of the larvae. Drowning was avoided by maintaining the appropriate humidity and water content of diet. Forty first and second instar larvae were placed into one well of a six well plate. Third instar larvae were transferred individually to 48 well plates filled with fresh food.
# Larval survival was determined daily by observing signs of respiration, disease symptoms, and other abnormalities with a stereo microscope. The number of dead larvae was recorded, and surviving larvae were fed fresh food. The start of pupation was indicated by the appearance of uric acid crystals and light yellow excretions in the remaining food.
# The larval survival data was analyzed using the LogRank test in SigmaPlot.
# P. larvae spores [4] = experiment: Determination of germinants / agonists of P. larvae spore germination (OD580 decrease); assay type: cell-based, Paenibacillus larvae subsp. pulvifaciens strain ATCC 49843; conditions: 3 mM amino acid or analog plus 3 mM uric acid
# Method: (§1) The decrease in optical density is proportional to spore germination (Powell, J. Gen. Microbiol., 4:330-338, 1950). Changes in light diffraction during spore germination were monitored at 580 nm (OD580) on a Biomate 5 (ThermoElectron Corporation, Waltham, Mass.) or a Tecan Infinite m200 (Tecan group, Männedorf, Switzerland) spectrophotometer. Experiments were carried out in 96-well plates (200 μL/well). In preparation for germination assays, P. larvae spore suspensions were washed three times with water. Spores were then heat activated at 70° C. for 30 minutes. The heat-activated spores were allowed to reach room temperature and transferred to 0.1 M sodium phosphate buffer (pH 7.0) to an approximate OD580 of 0.70. Spores were monitored for auto-germination for 30 minutes. […] Putative germinants were added individually or in combinations to a final concentration of 3 mM. Experiments were performed in triplicate with at least two different spore preparations. After germinant addition, OD580 of the spore suspension was measured every minute for an hour. Relative OD values were derived by dividing each OD580 reading by the initial OD580. Spore germination rates (v) were calculated from the initial linear decrease in relative OD (Akoachere et al., supra). Germination rates were set to 100% for P. larvae spores that had the fastest germination rate in an assay. Germination rates for other conditions were divided by the maximum germination rate for that assay and are reported as percent germination. Standard deviations were calculated from at least six independent measurements and are typically below 10%. Spore germination was confirmed in selected samples by microscope observation of Schaeffer-Fulton stained aliquots (Schaeffer and Fulton, supra).
# To test for possible agonists of P. larvae spore germination, spores were individually supplemented with 3 mM of a purine analog and 3 mM L-tyrosine. Separately, P. larvae spores were incubated with 3 mM of an amino acid analog and 3 mM uric acid. Spore germination was monitored as described above. […]
# P. larvae spores [5] = experiment: Antagonists of P. larvae spore germination, 3 mM (Example 1); assay type: cell-based, Paenibacillus larvae subsp. pulvifaciens strain ATCC 49843; conditions: 3 mM analog, 15 minutes, then 3 mM L-tyrosine/3 mM uric acid
# Method: as §1
# To test for possible antagonists of P. larvae spore germination, spores were individually supplemented with 3 mM of a purine analog or 3 mM of an amino acid analog. […] If no germination was detected, L-tyrosine and uric acid were added to 3 mM final concentrations, and germination was monitored as described above. […]
# [6] = test system: P. larvae subsp. larvae spores; assay type: cell-based, Paenibacillus larvae subsp. larvae
# Excerpt: Chemicals were purchased from Sigma Aldrich Corporation (St. Louis, Mo.). Dehydrated culture media was purchased from BD Difco (Franklin Lakes, N.J.). Paenibacillus larvae subsp. pulvifaciens strain ATCC 49843 was purchased from the […] (ATCC). Environmental American Foulbrood scales (the remains of infected larvae collected from infected hives) were kindly donated by Dr. Jay D. Evans at the USDA Bee Research Facility in Beltsville, Md.
# To test the generality of P. larvae spore response, spores were prepared from P. larvae subsp. pulvifaciens strain ATCC 49843, and also from an environmental AFB sample.
# P. larvae spores [7] = experiment: Activation of P. larvae spore germination by L-tyrosine and uric acid (titration); assay type: cell-based, Paenibacillus larvae subsp. pulvifaciens strain ATCC 49843; conditions: Paenibacillus larvae
# Method: The decrease in optical density is proportional to spore germination (Powell, J. Gen. Microbiol., 4:330-338, 1950). Changes in light diffraction during spore germination were monitored at 580 nm (OD580) on a Biomate 5 (ThermoElectron Corporation, Waltham, Mass.) or a Tecan Infinite m200 (Tecan group, Männedorf, Switzerland) spectrophotometer. Experiments were carried out in 96-well plates (200 μL/well). In preparation for germination assays, P. larvae spore suspensions were washed three times with water. Spores were then heat activated at 70° C. for 30 minutes. The heat-activated spores were allowed to reach room temperature and transferred to 0.1 M sodium phosphate buffer (pH 7.0) to an approximate OD580 of 0.70. Spores were monitored for auto-germination for 30 minutes. […] After germinant addition, OD580 of the spore suspension was measured every minute for an hour. Relative OD values were derived by dividing each OD580 reading by the initial OD580. Spore germination rates (v) were calculated from the initial linear decrease in relative OD (Akoachere et al., supra). […] Standard deviations were calculated from at least six independent measurements and are typically below 10%. […]
# P. larvae spore germination was tested with different combinations of L-tyrosine and uric acid. […] Germination rates were determined as above. […]
# [8] = 15 minutes incubation, then 3 mM L-tyrosine/3 mM uric acid, read-out: IC50 inhibition of P. larvae spore germination
# [9] = Table 1, 15 minutes prior to addition of 3 mM uric acid and 3 mM L-tyrosine, standard deviations in parentheses, N/A = no activity under the conditions tested, read-out: IC50
# [10] = Paenibacillus larvae, Table 2, saturating uric acid/L-tyrosine concentrations, read-out: IC50
# [11] = environmental P. larvae subsp. larvae compared with strain ATCC 49843
structure (smiles),measurement,setting,value
Cc1ccc2[nH]ccc2c1 [5-methylindole],IC50,P. larvae spores [1]; [8],370 µM
same,IC50,P. larvae spores [1]; [9],370 µM
N#Cc1ccc2cc[nH]c2c1 [6-cyanoindole],IC50,P. larvae spores [2]; [10],110 ± 10 µM
O=[N+]([O-])c1ccc2[nH]ccc2c1 [5-nitroindole],survival of honey bee larvae vs P. larvae spores alone,[3],increased survival
same,IC50,P. larvae spores [2]; [10],70 ± 10 µM
Brc1ccc2cc[nH]c2c1 [6-bromoindole],survival of honey bee larvae vs P. larvae spores alone,[3],increased survival
same,IC50,P. larvae spores [2]; [10],60 ± 60 µM
Cc1c[nH]c2ccccc12 [3-methylindole],IC50,P. larvae spores [1]; [8],380 µM
same,IC50,P. larvae spores [1]; [9],380 µM
Oc1ccccc1 [Phenol],germination response as co-germinant with uric acid,P. larvae spores [4],none of the compounds tested was able to activate
same,inhibition of uric acid/L-tyrosine-induced germination,P. larvae spores [5],able to inhibit
same,"inhibition of germination, both P. larvae sub-species",[6],similarly inhibited
N#Cc1cccc2[nH]ccc12 [4-cyanoindole],IC50,P. larvae spores [2]; [10],200 ± 20 µM
"N[C@H](Cc1ccc(O)cc1)C(=O)O [D-tyrosine, reference compound]",germination response as co-germinant with uric acid,P. larvae spores [4],none of the compounds tested was able to activate
same,inhibition of uric acid/L-tyrosine-induced germination,P. larvae spores [5],did not inhibit
Cc1cccc2cc[nH]c12 [7-methylindole],IC50,P. larvae spores [1]; [8],280 µM
same,IC50,P. larvae spores [1]; [9],280 µM
N[C@@H](Cc1ccc(O)cc1)C(=O)O [L-tyrosine],EC50,P. larvae spores [7]; read-out: EC50 for L-tyrosine activation of P. larvae spore germination,1200 µM
same,germination response as co-germinant with uric acid,P. larvae spores [4],strong germination response
same,"germination response to L-tyrosine and uric acid, both P. larvae sub-species",[6]; [11],responded identically
c1ccc2[nH]ccc2c1 [Indole],IC50,P. larvae spores [2]; Paenibacillus larvae,370 ± 20 µM
same,IC50,"P. larvae spores [2]; Paenibacillus larvae, read-out: IC50 inhibition of P. larvae spore germination (previously shown)",400 µM
same,inhibition of uric acid/L-tyrosine-induced germination,P. larvae spores [5],able to inhibit
same,"inhibition of germination, both P. larvae sub-species",[6]; [11],similarly inhibited
same,IC50,P. larvae spores [1],330 µM
same,IC50,P. larvae spores [1]; read-out: IC50 inhibition of P. larvae spore germination,370 µM
"O=c1[nH]c(=O)c2[nH]c(=O)[nH]c2[nH]1 [uric acid, reference compound]",EC50,"P. larvae spores [7]; titration of uric acid at saturating L-tyrosine concentration (3 mM), read-out: EC50 for uric acid activation of P. larvae spore germination",200 µM
same,"germination response to L-tyrosine and uric acid, both P. larvae sub-species",[6]; [11],responded identically
Cn1ccc2ccccc21 [1-N-methylindole],IC50 inhibition of P. larvae spore germination,"P. larvae spores [1]; 15 minutes incubation, then 3 mM L-tyrosine/3 mM uric acid",neither activated nor inhibited
Clc1ccc2cc[nH]c2c1 [6-chloroindole],survival of honey bee larvae vs P. larvae spores alone,[3],increased survival
same,IC50,P. larvae spores [2]; [10],20 µM
Brc1ccc2[nH]ccc2c1 [5-bromindole],ranking of effect on larval survival among analogs,[3],greatest effect
same,survival of honey bee larvae vs P. larvae spores alone,[3],increased survival
same,IC50,"P. larvae spores [2]; Table 2, saturating uric acid/L-tyrosine concentrations, read-out: IC50",60 ± 70 µM
Oc1ccc2[nH]ccc2c1 [5-hydroxyindole],IC50,P. larvae spores [2]; [10],550 ± 170 µM
Fc1ccc2cc[nH]c2c1 [6-fluoroindole],IC50,P. larvae spores [2]; [10],120 ± 10 µM
Fc1ccc2[nH]ccc2c1 [5-fluoroindole],IC50,P. larvae spores [2]; [10],120 ± 20 µM
